From PubChem BioAssay (NCI) come the findings set out here.

Common to all, as to assay: NCI anticancer screen, dose series, 48 h
The subject of experiment [1] is COLO 205 colon.
Experiment [2] concerns DLD-1 colon.
Experiment [3] deals with KM20L2 colon.
In experiment [4] the test system is LXFL 529 NSCLC.
Experiment [5] deals with M19-MEL melanoma.
Experiment [6] concerns MDA-MB-231 breast.
In experiment [7] the test system is MDA-MB-435.
For experiment [8], the system named is PC-3 prostate.
Experiment [9] has as its system SNB-78 CNS.

Molecules are shown by their SMILES. In brackets after ≈: the same amount, converted by molar mass. Several values for one entry are separate records, joined by “and”; a condition that tells them apart may be missing. Identical values can stand only once.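 Compound exposure: 48 hours, 5 concentrations, 96-well plates. GI50 is the concentration that inhibits growth by half. The concentration for full growth arrest is given as TGI.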 Activity calls are given as the source filed them. Cut-off read from the data, not from the text of the source: active = GI50 below about 0.43 µM; inactive = the rest.

Turning to `COc1c(O)c2ccccc2c2cc(O)ccc12`, the TGI in [1] was 31.5 µM; in experiment [2], 25.5 µM; in experiment [3], 46.6 µM; in experiment [4], 9.9 µM; in [5] it was 3.59 µM; in [6], 19.4 µM. The figures for the TGI in experiment [7], in [8] and in [9] were 2.3 µM, 60.1 µM and 46.6 µM, respectively.

Take `O=C(Nc1ccc(Cl)cc1)NS(=O)(=O)c1ccc2c(c1)CCC2`: the TGI in experiment [1] is greater than 60.8 µM; in [2], > 100 µM and 41.1 µg/mL; in experiment [3], greater than 100 µM; in experiment [4], greater than 100 µM; in [5], > 100 µM and 58.5 µg/mL; in experiment [7], 48.3 µM. In addition, the TGI in experiment [8] was 47.3 µM; in experiment [9], > 100 µM and 51 µg/mL. In addition, the GI50 in experiment [2] was 19.5 µg/mL (≈ 55.5 µM); in experiment [5], 29.8 µg/mL (≈ 85.1 µM); in experiment [9] it was 8.37 µg/mL (≈ 23.9 µM). The result in experiment [3] and in experiment [4] was inactive.

For the molecule `CC(=O)OCC1OC(n2cc(F)c(=O)[nH]c2=O)C(OC(C)=O)C1OC(C)=O` (stereo not drawn), the TGI in [1] is greater than 83.2 µM; in experiment [2] it was greater than 100 µM; in [3], greater than 100 µM; in [4] it was greater than 100 µM; in [5] it was greater than 100 µM; in experiment [6], greater than 56.2 µM. Also, the TGI in experiment [7], in [8] and in experiment [9] was greater than 100 µM in each case.

For the molecule `CC(=O)NNc1nc(C)c(C(/C=C/c2ccc(/C=C/C(=N\NC(=O)c3ccncc3)c3sc(NNC(C)=O)nc3C)cc2)=N/NC(=O)c2ccncc2)s1`, the TGI in experiment [1], in experiment [2], in experiment [3], in [4], in experiment [5] and in experiment [9] was greater than 100 µM throughout.

As to `CC(=O)Oc1c(-c2ccccc2)[nH]c2cc([N+](=O)[O-])c(/C(Cl)=C/c3ccccc3)cc12`, the TGI is 19.6 µM in [1]; greater than 100 µM in [2]; 18.6 µM in experiment [3]; 18.1 µM in experiment [4]; 19.4 µM in experiment [5]; 52.6 µM in experiment [9].
